Test results taken from patent US12036212B2, “Enhancement of tumor response to chemotherapy by activation of the asmase/ceramide pathway through timed administration of a short-acting anti-angiogenic agent” (Memorial Sloan-Kettering Cancer Center, priority 2014, dated 2024).

Key:
ASMase = ASMase activity radioenzymatic assay in BAEC; format: cell-based, bovine
Protocol: BAEC were established from the intima of bovine aorta as described^1. Stock cultures were grown in 100-mm dishes in Dulbecco's modified Eagle's medium (DMEM) supplemented with glucose (1 g/liter), 5% heat-inactivated calf serum (CS), penicillin (50 units/ml), and streptomycin (50 μg/ml). Purified human recombinant bFGF (1 ng/ml; R&D Systems, Inc., Minneapolis, MN) was added every other day during the exponential growth phase. […] These plateau phase cells were either used for experiments, or further sub-cultured (up to a maximum of 10 times) at a split ratio of 1:8. For sub-culturing, monolayers were dissociated with STV (0.05% trypsin and 0.02% EDTA in PBS) for 2-3 min at 22° C., washed twice in 5% CS-DMEM, and resuspended in DMEM with supplements as above. These mild conditions of trypsinization were sufficient to detach cells but not injure, stimulate, or affect cell function in a detectable way. BAEC were maintained at 37° C. in 10% CO2 humidified incubators.
ASMase activity was quantified by radioenzymatic assay using [^14C-methylcholine]sphingomyelin (Amersham) as substrate as described (Schissel et al. J Biol Chem, 271, 18431-18436, 1996). Cell lysates were incubated with [^14C-methylcholine]-sphingomyelin substrate (0.026 mCi/9.5 nmol) in 250 mM sodium acetate, pH 5.0 supplemented with 0.1% Triton X-100 and 1 mM EDTA or 0.1 mM ZnCl. Reactions were terminated after 1 h with CHCl3:MeOH:1N HCl (100:100:1, v/v/v), and [^14C-methylcholine]phosphocholine product in the aqueous layer of the Folch extract was quantified using a Beckman Packard 2200 CA Tricarb scintillation counter. For detection of ASMase activity in patients, 10 μl of serum was used.
To test the effect of chemotherapy on ASMase signaling and ceramide production, BAEC were treated with paclitaxel (100 nM) and ASMase activity was determined by radioenzymatic assay (Rotolo et al, infra) using [^14C-methylcholine] sphingomyelin (Amersham) as substrate (FIG. 1A). Induction of ASMase activity was observed within 5 minutes after treatment, and the activation continued for 30 minutes. Ceramide generation was monitored using the diacylglycerol kinase assay (Stancevic et al. PLoS ONE 8, e69025, 2013). […] In further support of this, pre-incubation of BAEC with nystatin prior to treatment with chemotherapy inhibits chemotherapy-induced apoptosis (FIG. 3).
(§1) To determine the generality of the results observed, experiments were carried out using an additional endothelial cell line, human coronary artery endothelial cells (HCAEC); experiments were also performed using a different chemotherapeutic agent. […] Next, HCAEC were treated with paclitaxel (100 nM) (data not shown) and etoposide (50 μM) (FIG. 1F), and ceramide generation was evaluated.
To further establish the generality of ASMase activation by various chemotherapeutic agents, BAEC and HCAEC were treated with increasing doses of cisplatin (0.1-50 μM) (data not shown). […] The ASMase/ceramide pathway was activated by chemotherapeutic agents that belong to different classes of chemotherapeutic agents, such as: taxanes, topoisomerase inhibitors, and nucleoside analog metabolic inhibitors. Since such chemotherapy agents are characterized by distinct mechanisms of action in tumor cells, it is surprising that a group of such distinct agents converges on a common molecular (ASMase/ceramide) axis in endothelium. The present confirmation that distinct chemotherapeutic agents activate the ASMase/ceramide pathway permits the present inventors to take into account the results of experiments using single dose radiotherapy, which has been reported to activate the same pathway (Rao, S. S. et al., Axitinib sensitization of high Single Dose Radiotherapy. Radiotherapy and Oncology: Journal of the European Society for Therapeutic Radiology and Oncology 111, 88-93, doi:10.1016/j.radonc.2014.02.010 (2014)).
Gemcitabine was able to activate ASMase in cultured endothelial cells. […]

ceramide = assay: Ceramide generation in HCAEC; format: cell-based, human; conditions: paclitaxel 100 nM, etoposide 50 μM, cisplatin 0.1-50 μM
Protocol: HCAEC were obtained from Clonetics™ Coronary Artery Endothelial Cell Systems (Cambrex Bio Science Inc.). For HCAEC culturing and sub-culturing Clonetics cell system components were used: EBM®-2, Endothelial Cell Basal Medium-2 with addition of Clonetics EGM-2-MV SingleQuots containing growth supplements (Cambrex) (Biomedical Technologies, Inc.). For sub-culturing, monolayers were dissociated with Clonetics® Trypsin/EDTA solution for 2-3 min at 22° C. at a split ratio of 1:4 to expand the cell population for experiments. HCAEC cultures were maintained at 37° C. in 5% CO2 humidified incubators.
After treatment, cells were placed on ice, washed with cold PBS, and lipids were extracted by addition of scraped cells in methanol to an equal volume of chloroform and 0.6 volume of buffered saline/EDTA solution (135 mM NaCl, 4.5 mM KCl, 1.5 mM CaCl2), 0.5 mM MgCl2, 5.6 mM glucose, 10 mM HEPES pH 7.2, 10 mM EDTA). […] After 30 minutes at room temperature, the reaction was stopped by extraction of lipids with 1 ml of chloroform:methanol:1 N HCl (100:100:1), 170 μl of buffered saline solution (BSS) (135 mM NaCl, 1.5 mM CaCl2, 0.5 mM MgCl2, 5.6 mM glucose, and 10 mM HEPES (pH 72), and 30 μl of 100 mM EDTA. The lower organic phase was dried under N2. Ceramide-1 phosphate was resolved by thin-layer chromatography on silica gel 60 plates (Whatman) using a solvent system of chloroform:methanol:acetic acid (65:15:5, v/v/v) and detected by autoradiography, and incorporated ^32P was quantified by liquid scintillation counting. The level of ceramide was determined by comparison with a standard curve generated concomitantly of known amounts of ceramide.
as §1, with “evaluated. […]” for “evaluated.”

SMILES: CC(=O)O[C@H]1C(=O)[C@@]2(C)[C@H]([C@H](OC(=O)c3ccccc3)[C@]3(O)C[C@H](OC(=O)[C@H](O)[C@@H](NC(=O)c4ccccc4)c4ccccc4)C(C)=C1C3(C)C)[C@]1(OC(C)=O)CO[C@@H]1C[C@@H]2O [paclitaxel]
- ASMase activation continued for (ASMase; paclitaxel 100 nM): 30 min
- Induction of ASMase activity, time after treatment (ASMase; paclitaxel 100 nM): ≤ 5 min
- Ceramide generation (ceramide): leads to the generation of ceramide

SMILES: N.N.[Cl][Pt][Cl] [cisplatin]
- ASMase activation (ASMase; etoposide 50 μM, cisplatin 0.1-50 μM, gemcitabine 100 nM time-course): failed to activate ASMase
- Ceramide generation (ceramide): failed to activate ASMase and result in generation of ceramide
